Source: paper PMC13224100, “Esterase-Responsive Mitochondria-Targeted Hydropersulfide Donors Mitigate Doxorubicin Cardiotoxicity While Preserving Anticancer Activity” (Angewandte Chemie (International ed. in English), 2025)
Marks after values point to notes of the source that are not given here.

Experiments:
[1] = system: porcine liver esterase (PLE); test: Quantification of RSSH release (RSS-HPE-AM yield) by HPLC; type: biochemical; details: pH 7.4 ammonium bicarbonate with DTPA, 37 °C; for RSSH yield (%) (formation of RSS-HPE-AM): HPE-IAM trapping; for RSSH yield (%) (formation of TPP-RSS-HPE-AM): trapping with 50 equiv of HPE-IAM
Protocol: C. Quantification of RSSH Release by HPLC Analysis […]
(PLE, 1 U/mL) in ammonium bicarbonate buffer (100 mM, pH 7.4) containing diethylenetriaminepentaacetic acid (DTPA, 100 µM) at 37 °C. At designated time points, 200 μL aliquots were withdrawn and immediately quenched by mixing with 200 μL o f i c e-cold 0.1% formic acid. Samples were analyzed by HPLC using the same method and conditions as described above. Quantification of the trapped product (RSS-HPE-AM) was carried out using a calibration curve generated in-house with authentic standards. All experiments were performed in triplicate (n = 3), and data are reported as mean ± standard deviation (SD). […]
(§1) 0.1% formic acid. Samples were analyzed by Agilent HPLC with UV detection using a C18 reverse-phase column (Phenomenex Luna C18, 4.6 × 150 mm, 5 μm) at 25 °C with a flow rate of 1.0 mL/min and an injection volume of 20 μL. The gradient elution (all solvents v/v, containing 0.1% trifluoroacetic acid) was as follows: 0–10 min, linear gradient from 90% water / 10% acetonitrile to 50% water / 50% acetonitrile; 10–18 min, to 10% water / 90% acetonitrile; 18–20 min, held at 10% water / 90% acetonitrile; 20–25 min, return to 90% water / 10% acetonitrile.
Absorbance was monitored at 275 nm. […]

[2] = Stability of RSSH precursors with glutathione by HPLC; type: physicochemical; details: GSH 500 µM (5 equiv), PBS pH 7.4, 37 °C; for half-life at 100 µM: PBS with glutathione (500 µM), pH 7.4, precursor 100 µM, read-out: decomposition half-life (t1/2) in the presence of GSH; for decomposition half-life (t1/2) in the presence of GSH / decomposition rate constant in the presence of GSH: precursor 100 µM; for decomposition rate constant in the presence of GSH: in min-1
Protocol: We next evaluated whether our newly developed precursors generate RSSH in the presence of thiols, which are abundant in biological systems. We examined their reactivity toward glutathione (GSH, 5 equiv) in PBS (pH 7.4, 37 °C), and precursor consumption was quantified by HPLC. […] We attribute this difference to their intrinsic reactivity. As shown previously,[23] AST donors can undergo nucleophilic attack either at the carbonyl carbon, producing the intended RSSH and a thiocarbonate byproduct (Scheme 3a, Path A), or at the disulfide bond, giving an unsymmetrical disulfide and a thiocarbonate intermediate (Scheme 3a, Path B). The higher electrophilicity of the perthiocarbonate carbonyl likely explains the faster consumption of AST derivatives. In contrast, and consistent with earlier studies,[24] APT-1 and APT-1-TPP react mainly through thiol–disulfide exchange (Scheme 3b, Path B), as attack at the perthiocarbamate carbonyl is disfavored due to its lower electrophilicity compared with the perthiocarbonate in AST donors. […]
(n = 3), and data are reported as mean ± standard deviation (SD).
Stability of RSSH Precursors with Glutathione by HPLC
as §1, with “Stock solutions of RSSH precursor (10 mM in DMSO) and GSH (20 mM in PBS, pH 7.4) were prepared immediately prior to the assay. The RSSH precursor (100 µM) was incubated with GSH (500 µM) in phosphate-buffered saline (PBS, pH 7.4) at 37 °C. At designated time points, 200 μL aliquots were withdrawn and immediately quenched by mixing with an equal volume of ice-cold 0.1% formic” for “0.1% formic”
Absorbance was monitored at 275 nm. The percentage of precursor remaining at each time point was calculated by comparing the absorbance at 275 nm to the initial value. All experiments were performed in triplicate (n = 3), and data are reported as mean ± standard deviation (SD).
Figure S19. Stability profiles of (A) AST-2, (B) APT-1, (C) AST-2-TPP, and (D) APT-1-TPP in PBS, pH 7.4 at 37 °C in the presence of GSH. Decomposition rate constant for AST-2, APT-1, AST-2-TPP, and APT-1- […]
Decomposition half-lives for AST-2, APT-1, AST-2-TPP, and APT-1-TPP are 8.6 ± 0.1 min, 39.7 ± 1.2 min, 6.3 ± 0.1 min, and 56.2 ± 4.0 min, respectively. Data are mean ± standard deviation (SD) (n = 3)
(1 picture or pasted object on this page, not shown here)

With `COC(=O)SSC(C)(C)C(NC(C)=O)C(=O)OC` (centres unmarked) [AST-2] the “RSSH yield (%) (formation of RSS-HPE-AM)” value [1] was 95%, the half-life at 100 µM [2] was 8.6 ± 0.1 min and the “decomposition half-life (t1/2) in the presence of GSH” value (from here on “decomposition half-life”) [2] was 9 min. For the same molecule, the “decomposition rate constant in the presence of GSH” value (“decomposition rate constant” for short) [2] was 0.08081 ± 0.00105.

With `COC(=O)C(NC(C)=O)C(C)(C)SSC(=O)N(C)CCOC(C)=O` (centres unmarked) [APT-1] the “RSSH yield (%) (formation of RSS-HPE-AM)” value [1] was 92%, the half-life at 100 µM [2] was 39.7 ± 1.2 min and the “decomposition half-life” value [2] was 40 min. For the same molecule, the “decomposition rate constant” value [2] was 0.01749 ± 0.00052.

For `COC(=O)SSC(C)(C)C(NC(C)=O)C(=O)N(C)CCC[P+](c1ccccc1)(c1ccccc1)c1ccccc1` (centres unmarked) [AST-2-TPP], the “RSSH yield (%) (formation of TPP-RSS-HPE-AM)” value [1] was 91%, the “RSSH yield (%) (formation of TPP-RSS-HPE-AM)” value ([1]; listed as AsT-2-TPP) was 91^b) % and the half-life at 100 µM [2] was 6.3 ± 0.1 min. The “decomposition half-life” value [2] was 6 min and the “decomposition rate constant” value [2] was 0.1094 ± 0.00183.

In the case of `CC(=O)NC(C(=O)N(C)CCC[P+](c1ccccc1)(c1ccccc1)c1ccccc1)C(C)(C)SSC(=O)N(C)CCOC(C)=O` (centres unmarked) [APT-1-TPP], the “RSSH yield (%) (formation of RSS-HPE-AM)” value [1] is reported as 95%, the half-life at 100 µM [2] is reported as 56.2 ± 4 min and the “decomposition half-life” value [2] is reported as 56 min. The “decomposition rate constant” value [2] was 0.01236 ± 0.00066.
